Data set [1] concerns the target T1, FPR1 (Homo sapiens, UniProt P21462).
T1 construct: expressed in transfected cells; host or cells: HL60 (human promyelocytic leukemia), stably transfected; gift from Dr. Marie-Josephe Rabiet
T1 sequence (P21462 1-350): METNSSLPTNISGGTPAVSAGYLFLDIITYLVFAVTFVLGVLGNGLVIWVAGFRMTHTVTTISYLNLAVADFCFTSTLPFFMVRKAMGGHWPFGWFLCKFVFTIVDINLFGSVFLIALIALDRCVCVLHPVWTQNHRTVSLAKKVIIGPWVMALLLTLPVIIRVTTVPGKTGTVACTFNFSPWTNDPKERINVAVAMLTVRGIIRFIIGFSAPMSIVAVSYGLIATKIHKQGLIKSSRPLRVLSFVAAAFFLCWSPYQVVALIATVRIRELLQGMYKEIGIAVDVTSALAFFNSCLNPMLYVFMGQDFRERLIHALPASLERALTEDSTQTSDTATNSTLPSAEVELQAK
As to the kind of experiment: Ca2+ mobilization in FPR1-transfected HL60 cells. Format: cell-based. As to conditions: for Emax: HL-60, read-out: FPR1-HL60 Efficacy (converted).
Procedure: (§1) Human promyelocytic leukemia HL60 cells stably transfected with FPR1 (FPR1-HL60 cells) or FPR2 (FPR2-HL60 cells) (kind gift from Dr. Marie-Josephe Rabiet, Université Joseph Fourier, Grenoble, France) were cultured in RPMI 1640 medium supplemented with 10% heat-inactivated fetal calf serum, 10 mM HEPES, 100 μg/mL streptomycin, 100 U/mL penicillin, and G418 (1 mg/mL). G418 was removed in the last round of culture before assays were performed.

Data set [2] has as its target T2, FPR2 (Homo sapiens, UniProt P25090).
T2 construct: expressed in transfected cells; host or cells: HL60 (human promyelocytic leukemia), stably transfected; gift from Dr. Marie-Josephe Rabiet
T2 sequence (P25090 1-351): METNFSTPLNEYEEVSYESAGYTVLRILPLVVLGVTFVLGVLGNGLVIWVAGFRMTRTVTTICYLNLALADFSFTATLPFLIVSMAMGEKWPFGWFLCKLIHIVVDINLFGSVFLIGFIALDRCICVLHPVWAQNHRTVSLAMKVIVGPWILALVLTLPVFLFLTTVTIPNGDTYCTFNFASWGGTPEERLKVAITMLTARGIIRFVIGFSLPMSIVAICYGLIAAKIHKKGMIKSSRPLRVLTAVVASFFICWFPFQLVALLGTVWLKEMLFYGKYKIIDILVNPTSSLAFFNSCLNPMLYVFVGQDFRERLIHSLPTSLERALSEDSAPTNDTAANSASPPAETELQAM
As to the kind of experiment: Ca2+ mobilization in FPR2-transfected HL60 cells. Format: cell-based. The following applies: for Emax: HL-60, read-out: FPR2-HL60 Efficacy (converted); for selectivity index (SI) FPR1/FPR2: ratio of EC50 FPR1-HL60 / FPR2-HL60.
Procedure: as §1

The subject of data set [3] is human neutrophils (hPMN). As to the kind of experiment: Ca2+ mobilization in human neutrophils (hPMN). Format: cell-based. The following applies: Neutrophil; for Emax: read-out: hPMN Efficacy (converted). From the text:
Blood was collected from healthy donors in accordance with a protocol approved by the Institutional Review Board at Montana State University. Neutrophils were purified from the blood using dextran sedimentation, followed by Histopaque 1077 gradient separation and hypotonic lysis of red blood cells. Isolated neutrophils were washed twice and resuspended in HBSS^-. Neutrophil preparations were routinely >95% pure, as determined by light microscopy, and >98% viable, as determined by trypan blue exclusion.
Changes in intracellular Ca^2+ were measured with a FlexStation II scanning fluorometer (Molecular Devices, Sunnyvale, CA, USA). The cells, suspended in Hank’s balanced salt solution without Ca^2+ and Mg^2+ but with 10 mM HEPES (HBSS^−), were loaded with 1.25 μg/mL Fluo-4 AM dye and incubated for 30 min in the dark at 37 °C. After dye loading, the cells were washed with HBSS^- containing 10 mM HEPES, resuspended in HBSS^+ containing Ca^2+, Mg^2+, and 10 mM HEPES (HBSS^+), and aliquoted into the wells of flat-bottom, half-area-well black microtiter plates (2 × 10^5 cells/well). For the evaluation of direct agonist activity, compounds of interest were added from a source plate containing dilutions of test compounds in HBSS^+, and changes in fluorescence were monitored (λex = 485 nm, λem = 538 nm) every 5 s for 240 s at room temperature after the automated addition of compounds. Maximum change in fluorescence during the first 3 min, expressed in arbitrary units over baseline, was used to determine a response. […] Curve fitting (5–6 points) and calculation of median effective inhibitory concentrations (IC50) were performed by nonlinear regression analysis of the dose–response curves generated using Prism 9 (GraphPad Software, Inc., San Diego, CA, USA).

For `Cc1c(-c2cccc(O)c2)cc(C#N)c(=O)n1CC(=O)Nc1ccc(O)cc1` [Compound 14c, 2-[3-Cyano-5-(3-hydroxyphenyl)-6-methyl-2-oxopyridin-1(2H)-yl]-N-(4-hydroxyphenyl) acetamide], the melting point is 232 to 234 °C (dec.).
Consider `Cc1c(-c2cccc(O)c2)cc(C#N)c(=O)n1CC(=O)Nc1cccc(O)c1` [Compound 14b, 2-[3-Cyano-5-(3-hydroxyphenyl)-6-methyl-2-oxopyridin-1(2H)-yl]-N-(3-hydroxyphenyl) acetamide], for which the melting point was 187 to 189 °C (dec.). Also, in data set [1], the EC50 turned out to be 40.1 ± 7.2 µM and the Emax was 50%. Also, in data set [2], a half-maximal effect (EC50) was put at 37.6 ± 5.6 µM and the Emax is 150%.
In turn, `Cc1c(C(=O)N(C)C)cc(C#N)c(=O)n1CC(=O)Nc1ccc(Br)cc1` [Compound 8e, 1-{2-[(4-Bromophenyl)amino]-2-oxoethyl}-5-cyano-N,N,2-trimethyl-6-oxo-1,6-dihydropyridine-3-carboxamide] yielded a melting point of 122 to 124 °C. In addition, in data set [1], it took 18 ± 3.5 µM to reach a half-maximal effect (EC50) and the Emax is 110%. Also, in data set [2], the midpoint of the response, the EC50, lay at 2.4 ± 1.2 µM; the Emax was 150%; the “selectivity index (SI) FPR1/FPR2” value was 7.5. Besides, in data set [3], the response was half-maximal at 20.8 ± 4.8 µM (EC50) and the Emax was 110%.
Turning to `CCCNC(=O)c1cc(C#N)c(=O)n(CC(=O)Nc2ccc(Br)cc2)c1C` [Compound 8c, 1-{2-[(4-bromophenyl)amino]-2-oxoethyl}-5-cyano-2-methyl-6-oxo-N-propyl-1,6-dihydropyridine-3-carboxamide], the melting point was 274 to 276 °C (dec.). Besides, in data set [1], the EC50 was 7 ± 0.7 µM and the Emax was 120%. Also, in data set [2], the response was half-maximal at 1.3 ± 0.1 µM (EC50) and the Emax was 135%. Further, in data set [3], a half-maximal response (EC50) required 7.2 ± 1.6 µM and the Emax is 70%.
Molecule `COc1cccc(-c2cc(C#N)c(=O)n(CC(=O)Nc3cccc(O)c3)c2C)c1` [Compound 13b, 2-[3-Cyano-5-(3-methoxyphenyl)-6-methyl-2-oxopyridin-1(2H)-yl]-N-(3-hydroxyphenyl) acetamide] came in with a melting point of 128 to 130 °C.
As to `CCCOC(=O)c1cc(C#N)c(=O)n(CC(=O)Nc2ccc(Br)cc2)c1C` [Compound 4a, Propyl 1-{2-[(4-bromophenyl)amino]-2-oxoethyl}-5-cyano-2-methyl-6-oxo-1,6-dihydropyridine-3-carboxylate], the melting point was 193 to 195 °C (dec.). Moreover, in data set [1], it took 16.3 ± 3.4 µM to reach a half-maximal effect (EC50) and the Emax is 115%. Besides, in data set [2], the response was half-maximal at 3.2 ± 0.6 µM (EC50) and the Emax was 140%. For the same molecule, in data set [3], the EC50 was determined as 6.4 ± 1.7 µM and the Emax is 115%.
As for `Cc1c(C(=O)O)cc(C#N)c(=O)n1CC(=O)Nc1ccc(Br)cc1` [Compound 2, 1-{2-[(4-Bromophenyl)amino]-2-oxoethyl}-5-cyano-2-methyl-6-oxo-1,6-dihydropyridine-3-carboxylic acid], the melting point was 180 to 182 °C (dec.). For the same molecule, in data set [1], the midpoint of the response, the EC50, lay at 3.5 ± 0.9 µM and the Emax is 100%. In data set [2], the EC50 stood at 9.2 ± 1.9 µM and the Emax is 100%. In data set [3], it took 4.3 ± 1.5 µM to reach a half-maximal effect (EC50) and the Emax is 120%.
Turning to `CCCCNC(=O)c1cc(C#N)c(=O)n(CC(=O)Nc2ccc(Br)cc2)c1C` [Compound 8d, 1-{2-[(4-Bromophenyl)amino]-2-oxoethyl}-N-butyl-5-cyano-2-methyl-6-oxo-1,6-dihydropyridine-3-carboxamide], the melting point was 261 to 263 °C (dec.). In data set [1], a half-maximal effect (EC50) was put at 9.1 ± 1.4 µM and the Emax is 140%. Moreover, in data set [2], the EC50 was determined as 1 ± 0.4 µM, the Emax is 130% and the “selectivity index (SI) FPR1/FPR2” value is reported as 9. Moreover, in data set [3], the EC50 stood at 4 ± 0.9 µM and the Emax is 70%.
Molecule `Cc1c(C(=O)OC(C)C)cc(C#N)c(=O)n1CC(=O)Nc1ccc(Br)cc1` [Compound 4c, Isopropyl 1-{2-[(4-bromophenyl)amino]-2-oxoethyl}-5-cyano-2-methyl-6-oxo-1,6-dihydropyridine-3-carboxylate] showed a melting point of 223 to 224 °C. In data set [1], the EC50 amounted to 7.7 ± 1.7 µM and the Emax is 180%. In data set [2], the EC50 is 8.4 ± 1.7 µM and the Emax was 85%. For the same molecule, in data set [3], the EC50 amounted to 10.2 ± 1.9 µM and the Emax is 120%.
As to `COc1cccc(COC(=O)c2cc(C#N)c(=O)n(CC(=O)Nc3ccc(Br)cc3)c2C)c1` [Compound 4d, 3-Methoxybenzyl 1-{2-[(4-bromophenyl)amino]-2-oxoethyl}-5-cyano-2-methyl-6-oxo-1,6-dihydropyridine-3-carboxylate], the EC50 was determined as 20.8 ± 3.7 µM in data set [1], 14.1 ± 3.8 µM in data set [2] and 12.7 ± 3.9 µM in data set [3]. For the same molecule, the values for the Emax in data set [1], in data set [2] and in data set [3] were 85%, 100% and 65%, respectively.
In the case of `Cc1c(-c2cccc(O)c2)cc(C#N)c(=O)n1CC(=O)Nc1ccc(Br)cc1` [Compound 14a, N-(4-Bromophenyl)-2-[3-cyano-5-(3-hydroxyphenyl)-6-methyl-2-oxopyridin-1(2H)-yl] acetamide], the melting point is 282 to 284 °C (dec.). In data set [1], the response was half-maximal at 0.23 ± 0.06 µM (EC50) and the Emax was 115%. In data set [2], it took 0.23 ± 0.02 µM to reach a half-maximal effect (EC50) and the Emax was 150%. Further, in data set [3], the EC50 came out at 3.7 ± 0.7 µM and the Emax is 130%.
Take `COc1ccc(C(=O)c2cc(C(N)=O)c(=O)n(CC(=O)Nc3ccc(Br)cc3)c2C)cc1` [Compound 10, 1-{2-[(4-bromophenyl)amino]-2-oxoethyl}-5-(4-methoxybenzoyl)-6-methyl-2-oxo-1,2-dihydropyridine-3-carboxamide]: the figures for the EC50 in data set [1], in data set [2] and in data set [3] were 4.4 ± 0.5 µM, 3.4 ± 0.7 µM and 7.5 ± 2.1 µM, respectively. The Emax in data set [1] was 105%; in data set [2], 130%; in data set [3] it was 120%.
Turning to `COc1cccc(CCOC(=O)c2cc(C#N)c(=O)n(CC(=O)Nc3ccc(Br)cc3)c2C)c1` [Compound 4e, 3-Methoxyphenethyl 1-{2-[(4-bromophenyl)amino]-2-oxoethyl}-5-cyano-2-methyl-6-oxo-1,6-dihydropyridine-3-carboxylate], the figures for the EC50 in data set [1], in data set [2] and in data set [3] were 24.1 ± 5.2 µM, 17.3 ± 4.1 µM and 17.9 ± 4.2 µM, respectively. Further, the Emax is 70% in data set [1], 75% in data set [2] and 65% in data set [3].
Regarding `Cc1c(C(N)=O)cc(C#N)c(=O)n1CC(=O)Nc1ccc(Br)cc1` [Compound 6, 1-{2-[(4-Bromophenyl)amino]-2-oxoethyl}-5-cyano-2-methyl-6-oxo-1,6-dihydropyridine-3-carboxamide], the EC50 is 27.1 ± 4.2 µM in data set [1], 8.4 ± 0.6 µM in data set [2] and 29.1 ± 3.6 µM in data set [3]. Besides, the Emax in data set [1] was 60%; in data set [2], 125%; in data set [3], 90%.
For `COc1cccc(-c2cc(C#N)c(=O)n(CC(=O)Nc3ccc(O)cc3)c2C)c1` [Compound 13c, 2-[3-Cyano-5-(3-methoxyphenyl)-6-methyl-2-oxopyridin-1(2H)-yl]-N-(4-hydroxyphenyl) acetamide], the melting point was in the range of 127 to 129 °C.
As to `COc1ccc(C(=O)c2cc(C#N)c(=O)n(CC(=O)Nc3ccc(Br)cc3)c2C)cc1` [Compound 11, N-(4-bromophenyl)-2-[3-cyano-5-(4-methoxybenzoyl)-6-methyl-2-oxopyridin-1(2H)-yl]acetamide], the EC50 in data set [1] was determined as 5.2 ± 0.4 µM; in data set [2], 1.9 ± 0.2 µM; in data set [3], 7.8 ± 2.2 µM. Also, the Emax was 105% in data set [1], 110% in data set [2] and 120% in data set [3].

Values taken from article PMC8587000, “Pyridinone Derivatives as Interesting Formyl Peptide Receptor (FPR) Agonists for the Treatment of Rheumatoid Arthritis” (Molecules, 2021).
